Tested on: T1, PedE_M.s.
T1 construct: gene pedE; C-terminal 8xHis tag; codon-optimised gene expressed in Methylorubrum extorquens AM1 (quadruple mutant) with Ca2+; Ni-NTA purified; signal peptide not discussed
Assay: PMS-mediated DCPIP reduction at […] nm; Michaelis-Menten fit
Assay type: biochemical
Details: PMS 1 mM, DCPIP 150 uM, 45 mM NH4Cl, 100 mM Tris-HCl pH 9.0; optimal conditions (30 °C optimum; general assay text says about 26 °C); Ca2+-PQQ enzyme; read-out: Methylopila sp. M107 / Km

| Compound | Km [µM] |
| --- | --- |
| CO [Methanol] | 25 ± 6 |
| C=O [Formaldehyde] | 39 ± 21 |
| CCO [Ethanol] | 28 ± 6 |
| CCCO [Propanol] | 25 ± 6 |

The next lines start with the values.

| Km [µM] | Compound |
| --- | --- |
| 49 ± 14 | CCCCCO [Pentanol] |
| 79 ± 14 | CCCCCCO [Hexanol] |
| 39 ± 15 | CCCCO [Butanol] |
| 35 ± 12 | CC(C)O [Isopropanol] |

— paper PMC10409515, “Enzymatic properties of alcohol dehydrogenase PedE_M.s. derived from Methylopila sp. M107 and its broad metal selectivity” (Frontiers in Microbiology, 2023)
